Assay results reported in a melting point compilation (Tetko et al.; mined from patent text by program, amines drawn as free bases though some values may be those of a salt).

| SMILES | melting point [°C] |
| --- | --- |
| CCOC(=O)Nc1nc(-c2ccccc2)c(-c2nc3ccccc3c(=O)n2-c2ccc(C(C)=O)cc2)s1 | 245 to 247 |
| CCCCOc1cc(/C=C(\OCC)C(=O)O)ccc1CCCc1ccc(OS(=O)(=O)CCCC)c(OC)c1 | 75 |
| CC(=N)NCCCCCCCCCCCCNC(C)=N | 92 to 97 |
| COc1ccc(CS(=O)(=O)Cc2ccc(OC)cc2OC)c(OC)c1 | 104 to 106 |
| Nc1ccc(Oc2c(Cl)cc(C(F)(F)F)cc2Cl)cc1S(=O)(=O)c1cc[nH]n1 | 232 |
| N#Cc1cccc(-c2cc(-c3ccc(C#N)cc3O[N+](=O)[O-])on2)c1 | 198 to 199 |
| O=C(CCCN1CCC(c2ccc(Cl)cc2)CC1)c1ccc(CN2CCCC2)cc1 | 63 to 65 |
| Cn1c(=O)oc2cc([N+](=O)[O-])cc(F)c21 | 118 to 119 |
| COc1ccc(C(=O)N2CCCC3=C2CCc2cc(Cl)ccc23)cc1 | 182 to 183 |
| CC12CCC3C4CCC(OCc5ccccc5)CC4CCC3C1C=CC2=O (stereo not given) | 119 to 120 |
| Cc1cc(SC2=C(O)C[C@@](CCc3ccccc3)(C(C)C)OC2=O)c(C(C)C)c2sc(N)nc12 | 160 to 162 |
| O=C(CCCI)ON1C(=O)CCC1=O | 86 to 87 |
| Cc1c(C(=O)O)ccc2c1C(O)CCS2(=O)=O (stereo not given) | 172 to 173 |
| Cc1cccc(NC(=O)NCC(=O)N(CC(=O)N(C)c2ccccc2)c2ccccc2C)c1 | 193 |
| COc1cc(-c2nc(C)nn2C)cc2oc(=O)c(C)c(C)c12 | 180 |
| COC(=O)C=CC=CCS(=O)(=O)c1ccccc1 | 105 |
| CC(C)c1ccc2nc3ccc(C(=O)O)cc3c(=O)n2c1 | 312 to 316 |
| O=c1c(C2CC2)c(N2CCC(c3ccccc3)CC2)ccn1CC1CC1 | 202 |
| O=c1[nH]sc2c1CCC2 | 177 to 179 |
| CN(C)CC1CCc2cc(OCc3ccc(NC(=O)Cc4ccccc4)cc3)ccc2C1 (stereo not given) | 130 to 135 |
| CN1CCN(c2ccc(Nc3cc(-c4cccc(N5CCc6c(cc7n6CCCC7)C5=O)c4CO)cn(C)c3=O)nc2)CC1 | 180 to 181 |
| COc1ccc(CCN(C)CCCCc2ccc(NC(=O)c3cccc4c(=O)c5cccc(OC)c5[nH]c34)cc2)cc1 | 182 |
| CS(=O)(=O)Nc1ccc(OCC2CCN(c3ccncc3)CC2)cc1 | 214 to 215 |
| CCNC(=O)c1cccc(NCC(=O)NCCc2ccc(OC)c(OC)c2)c1 | 99 to 101 |
| CC12C=CC(=O)C=C1CCC1C2CCC2(C)C(=O)CCC12 (stereo not given) | 138 to 139 |

| SMILES | melting point [°C] |
| --- | --- |
| CS(=O)(=O)c1cccc(NC(=O)c2cnn3c(C(F)F)cc(-c4ccc(C(F)(F)F)c(F)c4)nc23)c1 | 238 |
| COc1ccccc1CNc1ccc2cc(Nc3ncco3)ccc2n1 | 205 |
| COC(C)(C)C(=O)C(Oc1ccc(Cl)cc1Cl)n1cncn1 (stereo not given) | 53 to 54 |
| CC(C)N1C(=O)NC(c2ccc3c(c2)CCC3)c2cc3c(cc21)OCO3 (stereo not given) | 146 to 148 |
| CNS(=O)(=O)/C=C/c1ccc2c(c1)c(C1CCN(C)CC1)cn2C | 155 to 159 |
| Cn1cc(-c2cc3nccnc3[nH]2)c2cc(OC3(CO)CCC3)ccc21 | 267 to 271 |
| NC(=O)c1ccc(CCBr)cc1 | 152 to 153 |
| COc1ccc(C2CCN(C)CC2)cc1Nc1ncc2ccc(-c3ccccc3OC)n2n1 | 64 to 69 |
| c1ccc(-c2coc3cc4c(cc23)CCC4)cc1 | 43 to 46 |
| FC(F)(F)c1ccc2c(C3CCNCC3)c[nH]c2c1 | 210 to 214 |
| Cn1cc(-c2ccc(Cl)c(Cl)c2)c(=O)c(-c2ccccc2Cl)c1 | 169 to 171 |
| O=C(OCc1ccccc1)N1C(=O)[C@H](O)[C@@H]1c1ccccc1 | 105 to 106 |
| COc1ccc(-c2coc3c(C)c(OCC4CO4)ccc3c2=O)cc1OC (stereo not given) | 214 |
| CCCc1c(OCCCOc2cccc3c2CCCC3)ccc2c1OC(CCCO)(CCCO)CC2O (stereo not given) | 123 to 124 |
| Cc1nn(-c2cncc(F)c2)cc1N | 136 to 138 |
| O=C(O)Cc1ccc2c(c1)CCc1cccnc1O2 | 203 to 204 |
| CCn1c(-c2ccc(F)cc2)c(OCCOc2ccc(C(C)=C3SC(=O)NC3=O)cc2)c(=O)c2ccccc21 | 214 to 216 |
| Cc1cccc(Nc2ncccc2[N+](=O)[O-])n1 | 153 to 154 |
| OCc1ccc(-c2ccccc2)s1 | 91.5 |
| C=CCc1c(OCCCOc2ccc(C(C)=O)c(O)c2CCC)ccc2oc(C(=O)O)cc12 | 157 to 158 |
| CC(=O)c1c(C)cc(=O)[nH]c1C | 160 to 162 |
| OCc1c(F)cc(O)cc1Cl | 125 to 127 |
| CN(c1nc(-c2cc3ccccc3[nH]c2=O)cs1)S(=O)(=O)c1cccc(F)c1 | 247 to 249 |
| O=C(O)c1cc(F)ccc1Nc1ccnc2c(C(F)(F)F)cccc12 | 262 to 268 |
| COc1cc2c3c(c(=O)n(C)c2cc1OC)CNCC3 | 178 to 179 |

| SMILES | melting point [°C] |
| --- | --- |
| CC(=O)OCC1OC(n2ccc3c(F)cccc32)C(OC(C)=O)C(OC(C)=O)C1OC(C)=O (stereo not given) | 132 to 135 |
| CC(C)(C)c1cc(/C=C/C=C/C(=O)NCCN2CCC(c3c[nH]c4ccccc34)CC2)cc(C(C)(C)C)c1O | 108 to 115 |
| CCOC(=O)C1(NC(=O)OCc2ccccc2)CC(=O)NC1=O (stereo not given) | 105 to 106 |
| CCCCCCCCC(=O)NCCc1ccc(O)cc1 | 65.9 to 66.7 |
| COS(=O)c1cc(C(=O)CBr)ccc1C (stereo not given) | 123 to 125 |
| COc1cc(C(=O)NS(=O)(=O)c2ccccc2C)ccc1Cc1cn(C)c2ccc(NC(=O)NC3CCCC3)cc12 | 212 to 215 |
| C=Cc1ccnc2c([N+](=O)[O-])cccc12 | 134 |
| CC(C)(C#N)c1cc(C(Cl)c2cncnc2)cc(C(C)(C)C#N)c1 (stereo not given) | 118 to 121 |
| Cn1nncc1COc1nn2c(-c3ccccc3)nnc2cc1-c1ccccc1 | 190 to 193 |
| COC12CC(c3nnc(-c4cncc(Br)c4)o3)CN(C)C1Cc1c[nH]c3cccc2c13 (stereo not given) | 155 to 157 |
| Cc1nc(N2CCc3ccccc3CC2)c(C#N)c(=O)n1NC(C)C | 142 to 146 |
| Nc1cc(N2CCN(C34CC5CC(CC(C5)C3)C4)CC2)nc(N)n1 | 265 to 268 |
| COc1ccc(-c2coc3cc(OCc4ccccc4)ccc3c2=O)cc1 | 181 to 183 |
| CC12CCC(CC1=C=C1C=CC(Nc3nc(Cl)nc(Cl)n3)=CC1)C2(C)C (stereo not given) | 238 |
| Cc1cc2c3c(cc(C)c2[nH]c1=O)C(C)C(C(C)N)O3 (stereo not given) | 195 to 207 |
| CC(C)(C)c1csc(-c2cc3cc(CC(C(=O)O)C(=O)O)ccc3o2)n1 | > 320 |
| CCC(Oc1ccc(C(C)(C)CC)cc1C(C)(C)CC)C(=O)Nc1cc(O)c(NC(=O)c2ccccc2)cc1Cl (stereo not given) | 190 to 191 |
| Cc1cc(Cn2nnn(-c3ccc(C(F)(F)F)cc3)c2=O)ccc1N | 210 to 211 |
| COc1c(-c2ccccc2)csc1-c1cnn2c(O)ccnc12 | 234 to 236 |
| O=C(O)c1ccc(-c2ccc(C(=O)O)cn2)nc1 | > 400 |
| Cc1ccc(S(=O)(=O)Nc2cc(C(C)C)c([N+](=O)[O-])cc2Br)cc1 | 132 |
| Cc1cc(C=CC#N)cc(Oc2[nH]c(=O)[nH]c(=O)c2C(C)C)c1 | 279 to 280 |
| CC(C)(C)NS(=O)(=O)c1csc2ccccc12 | 146 to 148 |
| N#CN=C(Nc1cnc(Cl)c(N)c1)Oc1ccccc1 | 219 to 220 |
| CCCOc1ccccc1-c1nc2cc(N)ccc2c(=O)[nH]1 | 185 |

| SMILES | melting point [°C] |
| --- | --- |
| O=S(=O)(N[C@H](CO)[C@@H](c1cc(F)cc(F)c1)C(F)(F)F)c1ccc(Cl)s1 | 126 |
| CC(NC(=O)n1c(=O)nc(N(C)C)n1C)c1ccccc1 (stereo not given) | 103 |
| N#Cc1cccc(-c2ccc3c(c2)C2(CCCC2)C(=O)N3)c1 | 217 to 219 |
| Cc1ccc(CS(=O)c2c(O)cc(C)oc2=O)cc1 (stereo not given) | 156 to 158 |
| COC(=O)c1ccc2c(-c3ccccc3)cc(=O)oc2c1 | 133 to 135 |
| Cn1cc(-c2cc(-c3cnc4c(c3)CC(=O)N4)ccn2)n(-c2ccc(C(C)(C)C#N)cc2)c1=O | 263 |
| CN1c2cccc(CC(=O)O)c2Sc2c(C(N)C(=O)OCC3c4ccccc4-c4ccccc43)cccc21 (stereo not given) | 217 to 219 |
| CCCN1C(=O)c2cnc(-c3ccccc3)nc2N(C(=O)CCl)c2ccccc21 | 139 to 140 |
| CC(=O)Oc1ccc(C(=O)O)cc1C(=O)c1ccccc1 | 162 to 163 |
| CCOC(=O)C1CCc2c([nH]c3ccc(N)cc23)C1 (stereo not given) | 123 to 124 |
| COc1cccc(C2(N(C)C)CCC(C(O)Cc3ccccc3)CC2)c1 (stereo not given) | 72 |
| COCCOc1ccc(/C=C/C(=O)NS(=O)(=O)c2ccccc2Cl)c(Oc2ncc(C(F)(F)F)cc2Cl)c1 | 168 to 169 |
| O=C(O)c1ccc(COc2ccc(-c3ccc(-c4c(Cc5ccccc5)oc5ccccc45)cc3)cc2)cc1 | 208 to 210 |
| O=C(CC1CCC(CC(=O)Oc2cc(O)cc(O)c2)CC1)Oc1cc(O)cc(O)c1 (stereo not given) | 215 to 220 |
| CCCN1CC(CO)CC2c3cccc4[nH]cc(c34)CC21 (stereo not given) | 166 to 168 |
| CCCn1cnc(C(N)=O)c1NC(=O)c1ccccc1OCC | 182 to 184 |
| O=C1CCC(Br)C(=O)N1 (stereo not given) | 76 to 83 |
| O=C1c2ccccc2C(=O)N1CCCn1c2ccccc2c2nc3ccccc3nc21 | 212 to 214 |
| NC(CNCC(N)=NO)=NO | 135 to 136 |
| CCOC(=O)C1=C(c2ccc(-n3c(C)nc4cnccc43)cc2)NC(C)=C(C(=O)OCCOC)C1c1ccccc1Cl (stereo not given) | 195 to 196 |
| O=C1CN(C(=O)c2ccco2)c2ccccc2N1 | 229 to 230 |
| CC(C)n1nc(-c2nc(-n3cccc3)c(N)nc2-c2ccccc2)ccc1=O | 132 to 136 |
| Cc1ccc(OC2=NS(=O)(=O)N=C(Oc3ccc(C)cc3)N2C)cc1 | 282 to 286 |
| COC(=O)c1cc2c3cc(C(C)=O)ccc3n(C)c2s1 | 196 to 198 |
| COc1ccc(C(=O)c2cc(OC)c(OC)c(OC)c2)cc1 | 72 to 73 |
